PubChem BioAssay AID248 (DTP/NCI, 2004)
Where “and” joins values, the source holds several entries; their conditions need not be identical. Equal values may be shown once. Inconclusive results and toxic doses are left out.

Tested on: L1210 leukemia ip in BDF1 mice, survival T/C
Assay: NCI In Vivo Anticancer Drug Screen. Data for tumor model L1210 Leukemia (intraperitoneal) in B6D2F1 (BDF1) mice
Conditions: endpoint: mean survival time, higher = longer survival
Outline: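 Read-out is survival time, reported as the treated-group measurement over the vehicle-control measurement.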

[1] = dose: 100.0 mg/kg/injection, schedule: Q01DX009 (ip), vehicle: Klucel (hydroxypropylcellulose) (HPC)
[2] = dose: 100.0 mg/kg/injection, schedule: Q04DX003 (ip), vehicle: Klucel (hydroxypropylcellulose) (HPC)
[3] = dose: 200.0 mg/kg/injection, schedule: Q01DX009 (ip), vehicle: Klucel (hydroxypropylcellulose) (HPC)
[4] = dose: 200.0 mg/kg/injection, schedule: Q04DX003 (ip), vehicle: Klucel (hydroxypropylcellulose) (HPC)
[5] = dose: 400.0 mg/kg/injection, schedule: Q01DX009 (ip), vehicle: Klucel (hydroxypropylcellulose) (HPC)
[6] = dose: 400.0 mg/kg/injection, schedule: Q04DX003 (ip), vehicle: Klucel (hydroxypropylcellulose) (HPC)
[7] = dose: 200.0 mg/kg/injection, schedule: Q01DX001 (ip), vehicle: saline
[8] = dose: 400.0 mg/kg/injection, schedule: Q01DX001 (ip), vehicle: saline
[9] = dose: 75.0 mg/kg/injection, schedule: Q01DX001 (ip), vehicle: saline
[10] = dose: 150.0 mg/kg/injection, schedule: Q01DX001 (ip), vehicle: saline
[11] = dose: 100.0 mg/kg/injection, schedule: Q01DX001 (ip), vehicle: carboxymethylcellulose (CMC)
[12] = dose: 200.0 mg/kg/injection, schedule: Q01DX001 (ip), vehicle: carboxymethylcellulose (CMC)
[13] = dose: 400.0 mg/kg/injection, schedule: Q01DX001 (ip), vehicle: carboxymethylcellulose (CMC)
[14] = dose: 100.0 mg/kg/injection, schedule: Q01DX001 (ip), vehicle: saline
[15] = dose: 100.0 mg/kg/injection, schedule: Q01DX009 (ip), vehicle: saline with Tween-80
[16] = dose: 200.0 mg/kg/injection, schedule: Q01DX009 (ip), vehicle: saline with Tween-80
[17] = dose: 100.0 mg/kg/injection, schedule: Q04DX002 (ip), vehicle: Klucel (hydroxypropylcellulose) (HPC)
[18] = dose: 200.0 mg/kg/injection, schedule: Q04DX002 (ip), vehicle: Klucel (hydroxypropylcellulose) (HPC)
[19] = dose: 400.0 mg/kg/injection, schedule: Q04DX002 (ip), vehicle: Klucel (hydroxypropylcellulose) (HPC)
[20] = dose: 25.0 mg/kg/injection, schedule: Q04DX002 (ip), vehicle: saline with Tween-80
[21] = dose: 50.0 mg/kg/injection, schedule: Q04DX002 (ip), vehicle: saline with Tween-80
[22] = dose: 100.0 mg/kg/injection, schedule: Q04DX002 (ip), vehicle: saline with Tween-80

## CCCCNc1ccc(S(=O)(=O)c2ccc(NCCCC)c([N+](=O)[O-])c2)cc1[N+](=O)[O-]
dose: 1.56 mg/kg/injection, schedule: Q01DX009 (ip), vehicle: DMSO
  T/C: 89 % of control
dose: 3.12 mg/kg/injection, schedule: Q01DX009 (ip), vehicle: DMSO
  T/C: 101 % of control
dose: 6.25 mg/kg/injection, schedule: Q01DX009 (ip), vehicle: DMSO
  T/C: 101 % of control
dose: 25.0 mg/kg/injection, schedule: Q01DX009 (ip), vehicle: DMSO
  T/C: 102 % of control
dose: 100.0 mg/kg/injection, schedule: Q01DX005 (ip), vehicle: DMSO
  T/C: 105 % of control
dose: 100.0 mg/kg/injection, schedule: Q01DX009 (ip), vehicle: DMSO
  T/C: 100 % of control
dose: 100.0 mg/kg/injection, schedule: Q04DX002 (ip), vehicle: DMSO
  T/C: 103 % of control
dose: 200.0 mg/kg/injection, schedule: Q01DX005 (ip), vehicle: DMSO
  T/C: 90 % of control
dose: 200.0 mg/kg/injection, schedule: Q04DX002 (ip), vehicle: DMSO
  T/C: 111 % of control
dose: 400.0 mg/kg/injection, schedule: Q01DX005 (ip), vehicle: DMSO
  T/C: 93 % of control
dose: 400.0 mg/kg/injection, schedule: Q04DX002 (ip), vehicle: DMSO
  T/C: 103 % of control

## O=C(COc1ccccc1)NCCO
[1]
  T/C: 110 % of control
[2]
  T/C: 100 % of control
[3]
  T/C: 103 % of control
[4]
  T/C: 97 % of control
[5]
  T/C: 111 % of control
[6]
  T/C: 102 % of control

## O=C(O)c1ccc(/C=N/NC(=S)Nc2cccc3cccnc23)cc1
[7]
  T/C: 94 % of control
[8]
  T/C: 97 % of control

## CN1c2ccc(Br)c[c]2[Sn]([CH3])([CH3])[c]2cc(Br)ccc21
dose: 100.0 mg/kg/injection, schedule: Q01DX001 (ip), vehicle: other
  T/C: 96 % of control
dose: 200.0 mg/kg/injection, schedule: Q01DX001 (ip), vehicle: other
  T/C: 97 % of control
dose: 400.0 mg/kg/injection, schedule: Q01DX001 (ip), vehicle: other
  T/C: 92 % of control

## CCOP(N)(=O)SCC (centres undefined)
dose: 5.0 mg/kg/injection, schedule: Q01DX001 (ip), vehicle: saline
  T/C: 110 % of control

## Cc1ccccc1SSc1ccccc1C
[2]
  T/C: 94 % of control
[4]
  T/C: 97 % of control
[6]
  T/C: 91 % of control

## Cc1cc(O)c(CN(C)C)cc1O
[9]
  T/C: 103 % of control
[10]
  T/C: 104 % of control

## CCC(CO)Nc1nc2cc(Cl)ccc2c2ccc(Cl)cc12 (centres undefined)
[2]
  T/C: 102 % of control
[4]
  T/C: 100 % of control
[6]
  T/C: 103 % of control

## O=C(CN1CCOCC1)Nc1ccc(-c2ccc(NC(=O)CN3CCOCC3)cc2)cc1
[11]
  T/C: 92 % of control
[12]
  T/C: 97 % of control
[13]
  T/C: 92 % of control

## CC(C)(CO)NCc1ccc(O)cc1
[11]
  T/C: 96 % of control
[12]
  T/C: 100 % of control
[13]
  T/C: 96 % of control

## CNc1cccc([N+](=O)[O-])c1
[14]
  T/C: 95 % of control
[7]
  T/C: 103 % of control

## CCCCCCCCC1OCC(C)O1 (centres undefined)
dose: 24.0 mg/kg/injection, schedule: Q01DX Z (ip), vehicle: methylcellulose (MC)
  T/C: 94 % of control and 92 % of control
dose: 37.0 mg/kg/injection, schedule: Q01DX Z (ip), vehicle: methylcellulose (MC)
  T/C: 96 % of control and 107 % of control
dose: 55.0 mg/kg/injection, schedule: Q01DX Z (ip), vehicle: methylcellulose (MC)
  T/C: 86 % of control
dose: 82.5 mg/kg/injection, schedule: Q01DX Z (ip), vehicle: methylcellulose (MC)
  T/C: 97 % of control and 92 % of control
dose: 124.0 mg/kg/injection, schedule: Q01DX Z (ip), vehicle: methylcellulose (MC)
  T/C: 94 % of control

## CCC(=O)/C=C/C1=C(C)CCCC1(C)C
[15]
  T/C: 96 % of control
dose: 100.0 mg/kg/injection, schedule: Q04DX003 (ip), vehicle: saline
  T/C: 95 % of control
[16]
  T/C: 93 % of control
dose: 200.0 mg/kg/injection, schedule: Q04DX003 (ip), vehicle: saline
  T/C: 97 % of control
dose: 400.0 mg/kg/injection, schedule: Q04DX003 (ip), vehicle: saline
  T/C: 97 % of control

## O=C1NC(=O)c2ccc(Br)c3cccc1c23
[17]
  T/C: 96 % of control
[18]
  T/C: 96 % of control
[19]
  T/C: 93 % of control

## O=C(CCN1CCCC1)c1ccc2ccccc2c1
[20]
  T/C: 97 % of control
[21]
  T/C: 97 % of control
[22]
  T/C: 100 % of control and 86 % of control

## C/C=C(\Br)C(=O)N1CCCCC1
[14]
  T/C: 94 % of control
[7]
  T/C: 100 % of control
[8]
  T/C: 95 % of control

## CCCCn1cnc2c(=S)nc(N)[nH]c21
dose: 3.3 mg/kg/injection, schedule: Q01DX Z (ip), vehicle: methylcellulose (MC)
  T/C: 115 % of control
dose: 5.0 mg/kg/injection, schedule: Q01DX Z (ip), vehicle: methylcellulose (MC)
  T/C: 118 % of control
dose: 19.0 mg/kg/injection, schedule: Q04DX003 (ip), vehicle: saline with Tween-80
  T/C: 111 % of control
dose: 66.0 mg/kg/injection, schedule: Q04DX003 (ip), vehicle: saline with Tween-80
  T/C: 164 % of control

## CCN(CCCl)Cc1ccc(-c2c3ccccc3cc3c2ccc2ccccc23)cc1
dose: 78.0 mg/kg/injection, schedule: Q01DX001 (ip), vehicle: carboxymethylcellulose (CMC)
  T/C: 90 % of control
dose: 118.0 mg/kg/injection, schedule: Q01DX001 (ip), vehicle: carboxymethylcellulose (CMC)
  T/C: 92 % of control
dose: 177.0 mg/kg/injection, schedule: Q01DX001 (ip), vehicle: carboxymethylcellulose (CMC)
  T/C: 95 % of control

## COC(=O)c1ccc(OC(C)OCCCl)cc1 (centres undefined)
dose: 100.0 mg/kg/injection, schedule: Q04DX002 (ip), vehicle: saline
  T/C: 93 % of control
dose: 200.0 mg/kg/injection, schedule: Q04DX002 (ip), vehicle: saline
  T/C: 96 % of control
dose: 400.0 mg/kg/injection, schedule: Q04DX002 (ip), vehicle: saline
  T/C: 96 % of control

## BrCc1c(CBr)c(CBr)c(CBr)c(CBr)c1CBr
[1]
  T/C: 98 % of control
[2]
  T/C: 94 % of control
[3]
  T/C: 97 % of control
[4]
  T/C: 96 % of control
[5]
  T/C: 97 % of control
[6]
  T/C: 96 % of control

## O=[N+]([O-])Nc1ccc(C(c2ccc(N[N+](=O)[O-])cc2)c2ccc([N+](=O)[O-])cc2)cc1
dose: 100.0 mg/kg/injection, schedule: Q01DX005 (ip), vehicle: saline with Tween-80
  T/C: 89 % of control
[15]
  T/C: 100 % of control
dose: 200.0 mg/kg/injection, schedule: Q01DX005 (ip), vehicle: saline with Tween-80
  T/C: 100 % of control
[16]
  T/C: 92 % of control
dose: 400.0 mg/kg/injection, schedule: Q01DX005 (ip), vehicle: saline with Tween-80
  T/C: 89 % of control
dose: 400.0 mg/kg/injection, schedule: Q01DX009 (ip), vehicle: saline with Tween-80
  T/C: 94 % of control

## O=C1OCC/C1=C\c1cccc(/C=C2\CCOC2=O)c1
[20]
  T/C: 92 % of control
[21]
  T/C: 95 % of control
[22]
  T/C: 106 % of control
dose: 200.0 mg/kg/injection, schedule: Q04DX002 (ip), vehicle: saline with Tween-80
  T/C: 100 % of control

## COc1cc(C(O)C(=O)O)c([N+](=O)[O-])cc1OC (centres undefined)
[14]
  T/C: 96 % of control
[7]
  T/C: 91 % of control
[8]
  T/C: 91 % of control

## COP(N)(=S)OC
[9]
  T/C: 101 % of control
[10]
  T/C: 98 % of control
dose: 300.0 mg/kg/injection, schedule: Q01DX001 (ip), vehicle: saline
  T/C: 104 % of control

## c1ccc2cc3sccc3cc2c1
[1]
  T/C: 96 % of control
[3]
  T/C: 95 % of control
[5]
  T/C: 93 % of control

## NC(=O)c1nnn(Cc2ccccc2)c1C(N)=O
[17]
  T/C: 104 % of control
[18]
  T/C: 96 % of control
[19]
  T/C: 101 % of control

## CCCCCCCCc1ccc(C(=O)O)cc1
[2]
  T/C: 105 % of control
[4]
  T/C: 101 % of control
[6]
  T/C: 91 % of control
